Data: patent US5648369A, “Aminoalkylpyridine compounds which are useful as anitconvulsant drugs, excitatory amino acid inhibitors and NMDA sigma receptor antagonists” (priority 1991, dated 1997)

Legend:
MES and scMet seizures = experiment: Anticonvulsant screening, ASP classification (MES and scMet tests) in mice, i.p.; type: in vivo, mouse; details: for ASP classification (Table 8): Table 8 comparison, titled MES Test, Rat, p.o.; for minimal effective dose: ip, i.p. mouse, read-out: ASP Group Classification
[1] = tested on: endogenous L-glutamate release; experiment: Ca2+ dependent, K+ evoked release of endogenous L-glutamate in cerebrocortical slices; type: cell-based, guinea pig; details: Cavia porcellus, means ± SEM, n = 4
MK-801 = experiment: Radioligand binding, MK-801, [3H]MK-801
Source text: (§1) EAAs are known to play important roles in excitatory neurotransmission in partial seizures as discussed earlier. […] Thus, several aminoalkylpyridines of this invention are effective antagonists of NMDA-receptor mediated EAA neurotransmission and function as noncompetitive NMDA antagonists and thus can be used to advantage in epilepsy, stroke and Alzheimer's disease.
(§2) EAAs are known to play important roles in excitatory transmission in partial seizures as discussed earlier. In general, antieptileptic drugs effective against MES seizures alter ionic transport across excitable membranes [Porter, R. J., and Pitlick, W. H., In "Basic and Clinical Pharmacology", 4th Edn., B. G. Katzung, Ed., Appleton and Lange, CA 1989, pp. 287-303]. Based on this rationale, the aminoalkylpyridines may be expected to attenuate EAA neurotransmission. Indeed, evaluation of potential displacement activity of #2 at all inhibitory and excitatory amino acid receptor types and subtypes using appropriate radioligands, indicate that this aminoalkylpyridine inhibits at 10 μM concentration, 49% of the binding of [^3 H]DTG, a ligand highly specific for the σ (sigma) receptor population of the PCP receptors on the NMDA receptor-ionophore complex (Table 6).
(§3) Values are expressed as the percent inhibition of specific binding and […]

Sigma = experiment: Radioligand binding, Sigma, [3H]DTG; details: σ receptor population
Source text: (§4) EAAs are known to play important roles in excitatory neurotransmission in partial seizures as discussed earlier.
(§5) EAAs are known to play important roles in excitatory transmission in partial seizures as discussed earlier.

PCF = experiment: Radioligand binding, PCP, [3H]TCP
Source text: as §1, §2, §3

[2] = tested on: maximal electroshock seizures; experiment: Maximal electroshock seizure (MES) test, anticonvulsant quantification in mice, i.p.; details: for ED50: Mus musculus, ip, read-out: ED50 MES; for P.I. MES (TD50/ED50): mice
Method: Screening Methodology to Determine Anticonvulsant Activity: In mice, i.p.: All compounds are solubilized in 0.5% methylcellulose. […] The compounds are administered intraperitoneally in a volume of 0.01 ml/gm to male Carworth Farms #1 mice weighing about 20 gm. All compounds are tested at least at three dose levels (30, 100 an 300 mg/kg) at 30 minutes and 4 hours after their administration.
(§7) The Maximal Electroshock Seizure Test (MES): Maximal electroshock seizures are elicited with a 60 Hz alternating current of 50 mA intensity in mice and about 150 mA in rats (5-7 times that necessary to elicit minimal electroshock seizures), delivered for 0.2 sec via corneal electrodes. A drop of 0.9% saline is instilled in the eye prior to application of the electrodes in order to prevent the death of the animal. Abolition of the hind limb tonic extension component of the seizure is defined as protection and results are expressed as number of animals protected/number of animals tested.
Anticonvulsant Quantification in Mice, i.p.: The ED50 values are determined in the MES, scMet and rotorod ataxia test.

[3] = tested on: maximal electroshock seizures; experiment: Maximal electroshock seizure (MES) test in the rat, p.o.; details: for responders at 50 mg/kg / ED50: Rattus norvegicus, po; for responders at 50 mg/kg: read-out: Percent protection at 50 mg/kg dose, p.o., in the MES Test in the rat; for ED50: read-out: ED50 MES
Source text: as §7
This species will be subject of the complete anticonvulsant quantification test evaluation as described above, but after oral (gavage) administration of the candidate compound.
Neurological deficit in rats is examined by the positional sense test and gait and stance test. […] Inability to do so rapidly indicates a neurologic deficit. In the gait and stance test, a neurologic deficit is indicated by a circular or zigzag gait, ataxia, abnormal spread of the legs, abnormal body posture, tremor, hyperactivity, lack of exploratory behavior, somnolence, stupor, or catalepsy.

[4] = Rotorod ataxia test (neurotoxicity), mice, i.p.; details: mouse, in vivo, ip
Method: Neurotoxicity is evaluated in mice by the rotorod ataxia test. The animal is placed on a wooden rod of 11/8" diameter rotating at 6 rpm. Normal mice can remain on a rod rotating at this speed indefinitely.

[5] = tested on: subcutaneous pentylenetetrazol seizures; experiment: Subcutaneous pentylenetetrazol (Metrazole) seizure threshold test (scMet), mice, i.p.; type: in vivo; details: Mus musculus, ip
Method: (§6) The Subcutaneous Pentylenetetrazol (Metrazole) Seizure Threshold Test (scMet): A 0.5% solution of 85 mg/kg of pentylenetetrazol is administered subcutaneously in the posterior midline. The animal is observed for 30 minutes.

[6] = tested on: subcutaneous pentylenetetrazol seizures; experiment: Subcutaneous pentylenetetrazol seizure threshold test (scMet), rat, p.o.; type: in vivo, rat (Sprague-Dawley); details: po
Method: as §6

in vivo = experiment: in vivo; parameters: species or system rat (Sprague-Dawley); details: rat, po
Source text: Inability to do so rapidly indicates a neurologic deficit.

Glycine = Glycine (Homo sapiens, UniProt Q05586); experiment: Radioligand binding, Glycine (excitatory), [3H]glycine; details: reference compound, [3H]glycine
Source text: as §4, §5

Kainate = experiment: Radioligand binding, Kainate, [3H]KA; details: reference compound, [3H]KA
Source text: as §1, §2, §3

Adenosine = experiment: Radioligand binding, Adenosine; details: reference compound, Adenosine
Source text: as §1, §2, §3

Compound	activity at the [3H]MK-801-binding receptor sites (in words) (MK-801)	inhibition of the binding of [3H]DTG (in words) (Sigma)	minimal effective dose (MES and scMet seizures) [mg/kg]	activity at the [3H]TCP-binding receptor sites / PCP receptors (in words) (PCF)	responders at 50 mg/kg [3] [%]	other results
Cc1ccc(N2N=NCC2c2ccncc2)cc1 (centres unmarked) [4-CH3, reference compound]	–	–	–	–	–	ASP classification (Table 8) (MES and scMet seizures): II (Class II compounds show anticonvulsant activity at doses greater than 100 mg/kg or show activity at 100 mg/kg which is not reinforced by similar activity at 300 mg/kg)
COc1ccc(N2N=NCC2c2ccncc2)cc1 (centres unmarked) [4-OCH3, reference compound]	–	–	–	–	–	ASP classification (Table 8) (MES and scMet seizures): III (Those failing to demonstrate anticonvulsant activity at doses up to 300 mg/kg are considered inactive)
Clc1ccc(N2N=NCC2c2ccncc2)cc1 (centres unmarked) [ADD17014, reference compound]	–	–	–	–	–	activity at 50 µM ([1]; 50 μM (K+), 30 mM K+, P < 0.001 vs K+ alone): 136 ± 6%; activity at 50 µM ([1]; 50 μM (basal)): 101 ± 9%; activity at 100 µM ([1]; 100 μM (K+), 30 mM K+, P < 0.001 vs K+ alone): 122 ± 5%; activity at 100 µM ([1]; 100 μM (basal)): 109 ± 4%
CC(Nc1ccc(Cl)c(Cl)c1)c1ccncc1 (centres unmarked) [Compound 1, 1-(3,4-Dicloroanilino)-1-(4-pyridyl)-ethan]	no activity	inhibit selectively	< 100	no activity	–	–
CC(Nc1cccc(Cl)c1)c1ccncc1 (centres unmarked) [Compound 3, 1-(3-Chloroanilino)-1-(4-pyridyl)-ethan]	no activity	inhibit selectively	< 100	no activity	50 to 75	ED50 [2]: 95.5 mg/kg; P.I. MES (TD50/ED50) [2]: > 5.24; TD50 [4]: > 500 mg/kg; ED50 [5]: > 250 mg/kg
CC(Nc1ccc(Br)cc1)c1ccncc1 (centres unmarked) [Compound 4, 1-(4-Bromoanilino)-1-(4-pyridyl)-ethan]	no activity	inhibit selectively	< 100	no activity	75 to 100	ED50 [2]: 62.7 mg/kg; P.I. MES (TD50/ED50) [2]: > 3.19; ED50 [3]: 20.9 mg/kg; P.I. MES (TD50/ED50) ([3]; rat, p.o.): > 23.93; ED50 [6]: > 250 mg/kg; TD50 [4]: > 200 mg/kg; TD50 (in vivo): > 500 mg/kg; ED50 [5]: > 200 mg/kg
CC(Nc1ccc(F)cc1)c1ccncc1 (centres unmarked) [Compound 5, 1-(4-Fluoroanilino)-1-(4-pyridyl)-ethan]	no activity	inhibit selectively	< 100	no activity	75 to 100	ED50 [2]: 57.4 mg/kg; P.I. MES (TD50/ED50) [2]: 2.46; ED50 [3]: 81.1 mg/kg; P.I. MES (TD50/ED50) ([3]; rat, p.o.): > 6.17; ED50 [6]: > 250 mg/kg; TD50 [4]: 141 mg/kg; TD50 (in vivo): > 500 mg/kg; ED50 [5]: > 80 mg/kg
Cc1ccc(NC(C)c2ccncc2)cc1 (centres unmarked) [Compound 6, 1-(4-Methylanilino)-1-(4-pyridyl)-ethan]	no activity	inhibit selectively	< 100	no activity	–	ASP classification (Table 8) (MES and scMet seizures): I (They demonstrate anticonvulsant activity in either the MES test or the scMet test, or both at doses of 100 mg/kg or 30 mg/kg without signs of neurological deficit)
COc1ccc(NC(C)c2ccncc2)cc1 (centres unmarked) [Compound 7, 1-(4-Methoxyanilino)-1-(4-pyridyl)-ethan]	–	–	< 100	–	25 to 50	protection at 50 mg/kg (Table 8) ([3]; 50 mg/kg, rat, p.o., MES): 25-50%; ASP classification (Table 8) (MES and scMet seizures): I (They demonstrate anticonvulsant activity in either the MES test or the scMet test, or both at doses of 100 mg/kg or 30 mg/kg without signs of neurological deficit)
CC(Nc1ccccc1)c1ccncc1 (centres unmarked) [Compound 8, 1-(Anilino)-1-(4-pyridyl)-ethan]	no activity	inhibit selectively	< 100	no activity	50 to 75	ED50 [2]: 81.7 mg/kg; P.I. MES (TD50/ED50) [2]: 1.97; ED50 [3]: 48.4 mg/kg; P.I. MES (TD50/ED50) ([3]; rat, p.o.): > 10.33; ED50 [6]: > 250 mg/kg; TD50 [4]: 161 mg/kg; TD50 (in vivo): > 500 mg/kg; ED50 [5]: < 300 mg/kg
CC(Nc1ccc(Cl)cc1)c1cccnc1 (centres unmarked) [Compound 9, 1-(4-Chloroanilino)-1-(3-pyridyl)-ethan]	no activity	inhibit selectively	< 100	no activity	25 to 75	–
Clc1ccc(NCc2ccncc2)cc1Cl [Compound 10, 1-(3,4-Dichloroanilino)-1-(4-pyridyl)-methan]	no activity	inhibit selectively	< 100	no activity	50	–
Clc1ccc(NCc2ccncc2)cc1 [Compound 11, 1-(4-Chloroanilino)-1-(4-pyridyl)-methan]	no activity	inhibit selectively	< 100	no activity	50 to 100	ED50 [2]: 68.4 mg/kg; P.I. MES (TD50/ED50) [2]: < 3.3; ED50 [3]: 39.1 mg/kg; P.I. MES (TD50/ED50) ([3]; rat, p.o.): > 12.8; ED50 [6]: > 250 mg/kg; TD50 ([4]; mice, i.p., read-out: TD50 (rotorod)): < 225 mg/kg; TD50 (in vivo): > 500 mg/kg; ED50 [5]: 107 mg/kg
Clc1cccc(NCc2ccncc2)c1 [Compound 12, 1-(3-Chloroanilino)-1-(4-pyridyl)-methan]	no activity	inhibit selectively	< 100	no activity	> 50	–
Brc1ccc(NCc2ccncc2)cc1 [Compound 13, 1-(4-Bromoanilino)-1-(4-pyridyl)-methan]	no activity	inhibit selectively	< 100	no activity	> 50	–
Fc1ccc(NCc2ccncc2)cc1 [Compound 14]	–	–	< 100	–	25	–
Cc1ccc(NCc2ccncc2)cc1 [Compound 15, 1-(4-Methylanilino)-1-(4-pyridyl)-methan]	–	–	< 100	–	–	–
COc1ccc(NCc2ccncc2)cc1 [Compound 16, 1-(4-Methoxyanilino)-1-(4-pyridyl)-methan]	–	–	< 100	–	–	–
C[C@@H](N)C(=O)O [D-Alanine, reference compound]	–	–	–	–	–	Ki (Glycine): 4900 nM
c1ccc(N2N=NCC2c2ccncc2)cc1 (centres unmarked) [H, reference compound]	–	–	–	–	–	ASP classification (Table 8) (MES and scMet seizures): II (Class II compounds show anticonvulsant activity at doses greater than 100 mg/kg or show activity at 100 mg/kg which is not reinforced by similar activity at 300 mg/kg)
C=C(C)[C@H]1CN[C@H](C(=O)O)[C@H]1CC(=O)O [Kainic Acid, reference compound]	–	–	–	–	–	Ki (Kainate): 24.9 nM
CNC(=O)[C@H]1O[C@@H](n2cnc3c(N)ncnc32)[C@H](O)[C@@H]1O [MECA, reference compound]	–	–	–	–	–	Ki (Adenosine): 39.5 nM
C[C@]12N[C@H](Cc3ccccc31)c1ccccc12 [MK-801, reference compound]	–	–	–	–	–	Ki (MK-801; reference compound, [3H]MK-801): 4.3 nM
c1ccc(C2(N3CCCCC3)CCCCC2)cc1 [PCP, phencyclidine, reference compound]	–	–	–	–	–	Ki (PCF; reference compound, [3H]TCP): 62.3 nM
